Nine compounds from ChEMBL document CHEMBL3272315, “Synthesis of angiotensin II antagonists containing N- and O-methylated and other amino acid residues” (J Med Chem, 1976) can be followed below.

Experiment [1] relates to Rattus norvegicus. Kind of experiment: Induction of blood pressure in vagotomized and ganglion-blocked rat at 6000 ng/kg/min, iv measured at 3 mins. In kind it is functional.
A short description of experiment [2]: Antagonist activity at angiotensin AT2 receptor in rabbit aortic strips assessed as inhibition of angiotensin 2- myotropic mediated response. The settings on record: Oryctolagus cuniculus; read-out: pA2 (converted).
The test system of experiment [3] is Rattus norvegicus. The experiment is described as follows: Induction of blood pressure in vagotomized and ganglion-blocked rat at 250 ng/kg/min, iv measured at 10 mins. In kind it is functional.
The species named for experiment [4] is Rattus norvegicus. Kind of experiment: Induction of pressor in vagotomized and ganglion-blocked rat assessed as initial pressor activity up to 10 ug/ml relative to angiotensin 2. It counts as functional.
The subject of experiment [5] is Rattus norvegicus. The experiment is described as follows: Potentiation of angiotensin 2-induced of blood pressure in vagotomized and ganglion-blocked rat at 6000 ng/kg/min, iv relative to before compound infusion. In kind it is functional.
The test system of experiment [6] is Rattus norvegicus. The experiment is described as follows: Induction of blood pressure in vagotomized and ganglion-blocked rat at 250 ng/kg/min, iv measured at 30 mins. In kind it is functional.
Experiment [7] deals with Rattus norvegicus. The experiment is described as follows: Induction of blood pressure in vagotomized and ganglion-blocked rat at 6000 ng/kg/min, iv measured at 30 mins. In kind it is functional.
The subject of experiment [8] is Rattus norvegicus. Kind of experiment: Induction of blood pressure in vagotomized and ganglion-blocked rat at 6000 ng/kg/min, iv measured at 10 mins. In kind it is functional.
A further experiment is filed under the species Felis catus. Kind of experiment: Agonist activity at angiotensin AT2 receptor in isolated cat adrenal medulla assessed as secretory activity relative to angiotensin 2. In kind it is tissue-based.
Experiment [9] concerns Rattus norvegicus. Kind of experiment: Induction of blood pressure in vagotomized and ganglion-blocked rat at 250 ng/kg/min, iv measured at 3 mins. In kind it is functional.
Experiment [10] in a line: Antagonist activity at angiotensin AT2 receptor in isolated cat adrenal medulla. In kind it is tissue-based, Felis catus.
Experiment [11] deals with Rattus norvegicus. The experiment is described as follows: Potentiation of angiotensin 2-induced of blood pressure in vagotomized and ganglion-blocked rat at 250 ng/kg/min, iv relative to before compound infusion. In kind it is functional.
The species entered for experiment [12] is Rattus norvegicus. The experiment is described as follows: Induction of pressor in vagotomized and ganglion-blocked rat assessed as initial pressor activity relative to angiotensin 2. It counts as functional.
Experiment [13] deals with Rattus norvegicus. Kind of experiment: Induction of blood pressure in acute adrenalectomized rat at 250 ng/kg/min, iv measured at 30 mins (reference value: 3.66 +/- 0.74 mmHg). In kind it is functional.
Experiment [14] deals with Rattus norvegicus. Kind of experiment: Potentiation of angiotensin 2-induced blood pressure in acute adrenalectomized rat at 250 ng/kg/min, iv relative to before compound infusion. In kind it is functional.
For experiment [15], the system named is Rattus norvegicus. Kind of experiment: Induction of blood pressure in rat at 250 ng/kg/min, iv measured at 3 mins (reference value: 0.78 +/- 0.26 mmHg). In kind it is functional.
Experiment [16] has as its system Rattus norvegicus. The experiment is described as follows: Induction of blood pressure in acute adrenalectomized rat at 250 ng/kg/min, iv measured at 3 mins (reference value: 0.78 +/- 0.26 mmHg). In kind it is functional.
Experiment [17] deals with Rattus norvegicus. Kind of experiment: Induction of blood pressure in rat at 250 ng/kg/min, iv measured at 30 mins (reference value: 3.66 +/- 0.74 mmHg). It counts as functional.
For experiment [18], the system named is Rattus norvegicus. The experiment is described as follows: Potentiation of angiotensin 2-induced blood pressure in rat at 250 ng/kg/min, iv relative to before compound infusion. It counts as functional.
Experiment [19] concerns Rattus norvegicus. The experiment is described as follows: Potentiation of angiotensin 2-induced blood pressure in acute adrenalectomized rat at 250 ng/kg/min, iv in presence of propranolol relative to before compound infusion. It counts as functional.
Experiment [20] has as its system Rattus norvegicus. The experiment is described as follows: Induction of blood pressure in acute adrenalectomized rat at 250 ng/kg/min, iv measured at 3 mins in presence of propranolol (reference value: 0.78 +/- 0.26 mmHg). It counts as functional.
Experiment [21] has as its system Rattus norvegicus. Kind of experiment: Induction of blood pressure in acute adrenalectomized rat at 250 ng/kg/min, iv measured at 30 mins in presence of propranolol (reference value: 3.66 +/- 0.74 mmHg). In kind it is functional.

Molecules are shown by their SMILES. Non-standard residues stand in square brackets, D forms with d. Residues, ends and D or L forms follow the SMILES beside them. Sar = CNCC(=O)O

For orientation: pA2 means a measure of antagonist potency on a negative log scale. Higher therefore signals higher antagonist potency.

As for `CC[C@H](C)[C@@H](C(=O)N[C@@H](Cc1cnc[nH]1)C(=O)N1CCC[C@H]1C(=O)N(C)[C@H](C(=O)O)[C@@H](C)CC)N(C)C(=O)[C@H](Cc1ccc(O)cc1)NC(=O)[C@@H](NC(=O)[C@H](CCCNC(=N)N)NC(=O)CNC)C(C)C`, the Activity with Rattus norvegicus [1] was found to be 2.5 mmHg; in the experiment on Rattus norvegicus [3], 3.2 mmHg; in the experiment listed under Rattus norvegicus [4], 0%; in the experiment on Rattus norvegicus [6] it was 7 mmHg; with Rattus norvegicus [7], 7.33 mmHg; with Rattus norvegicus [8], 3.16 mmHg. Moreover, the results for the Activity in the experiment filed under Felis catus and in the experiment with Rattus norvegicus [9] were less than 0.01% and 1 mmHg, respectively. Further, in experiment [2], the Kb is 0.0129 µM. Also, the Ratio with Rattus norvegicus [5] came to 0.82; with Rattus norvegicus [11], 0.62. The compound further gave a pA2 in [10] of 8.
As for `CC[C@H](C)[C@H](NC(=O)[C@@H]1CCCN1C(=O)[C@H](Cc1cnc[nH]1)NC(=O)[C@@H](NC(=O)[C@H](Cc1ccc(O)cc1)NC(=O)[C@@H](NC(=O)[C@H](CCCNC(=N)N)NC(=O)[C@H](CC(=O)O)NC)C(C)C)[C@@H](C)CC)C(=O)O`, in [2], the Kb was 0.00182 µM. In addition, the Activity is 16.57 mmHg in the experiment on Rattus norvegicus [3]; 0.76% in the experiment listed under Rattus norvegicus [12]; 16.57 mmHg in the experiment on Rattus norvegicus [6]; 1.01% in the experiment filed under Felis catus; 10.14 mmHg with Rattus norvegicus [9]. Besides, in [10], the pA2 was determined as 8.16. Besides, the Ratio with Rattus norvegicus [11] is on record as 33.43.
As for `CC[C@H](C)[C@H](NC(=O)[C@H](Cc1ccc(O)cc1)NC(=O)[C@@H](NC(=O)[C@H](CCCN=C(N)N)NC(=O)CNC)C(C)C)C(=O)N[C@@H](Cc1c[nH]cn1)C(=O)N1CCC[C@H]1C(=O)N[C@H](C(=O)O)[C@@H](C)O` (H-[Sar]RVYIHPT-OH), the Activity was 4.57 mmHg in the experiment with Rattus norvegicus [13]; 9.46 mmHg in the experiment on Rattus norvegicus [15]; 7.57 mmHg in the experiment with Rattus norvegicus [16]; 9.2 mmHg in the experiment on Rattus norvegicus [17]; 0% in the experiment listed under Felis catus. The Ratio with Rattus norvegicus [14] is 5.52; in the experiment on Rattus norvegicus [11], 26.9. Besides, the pA2 in experiment [10] is reported as 9.
As for `CC[C@H](C)[C@H](NC(=O)[C@@H]1CCCN1C(=O)[C@H](Cc1c[nH]cn1)NC(=O)[C@@H](NC(=O)[C@H](Cc1ccc(O)cc1)NC(=O)[C@@H](NC(=O)[C@H](CCCN=C(N)N)NC(=O)CNC)C(C)C)[C@@H](C)CC)C(=O)O`, the Kb in experiment [2] is 0.000676 µM. Moreover, the Ratio stood at 27.79 in the experiment with Rattus norvegicus [18] and 6.04 in the experiment on Rattus norvegicus [14]. Also, the Activity was found to be 1.8 mmHg with Rattus norvegicus [13]; 17.81 mmHg in the experiment with Rattus norvegicus [15]; 8.9 mmHg in the experiment on Rattus norvegicus [16]; 14.81 mmHg in the experiment on Rattus norvegicus [17]; 3% in the experiment listed under Felis catus. In [10], the pA2 stood at 9.5.
Regarding `CC[C@H](C)[C@H](NC(=O)[C@H](Cc1ccc(O)cc1)NC(=O)[C@@H](NC(=O)[C@H](CCCNC(=N)N)NC(=O)CNC)C(C)C)C(=O)N[C@@H](Cc1cnc[nH]1)C(=O)N1CCC[C@H]1C(=O)N[C@@H](CCSC)C(=O)O` (H-[Sar]RVYIHPM-OH), the Kb in [2] is 0.00234 µM. For the same compound, the Activity is 36.75 mmHg with Rattus norvegicus [3]; 3.74% in the experiment listed under Rattus norvegicus [12]; 32.5 mmHg with Rattus norvegicus [6]; less than 0.01% in the experiment filed under Felis catus; 36.75 mmHg in the experiment on Rattus norvegicus [9]. The pA2 in [10] was found to be 9.16.
As for `CC[C@H](C)[C@H](NC(=O)[C@@H]1CCCN1C(=O)[C@H](Cc1cnc[nH]1)NC(=O)[C@@H](NC(=O)[C@H](Cc1ccc(O)cc1)N(C)C(=O)[C@@H](NC(=O)[C@H](CCCNC(=N)N)NC(=O)CNC)C(C)C)[C@@H](C)CC)C(=O)O`, the Activity amounted to 39.2 mmHg with Rattus norvegicus [1]; 10 mmHg in the experiment on Rattus norvegicus [3]; 0.34% in the experiment filed under Rattus norvegicus [12]; 9.8 mmHg with Rattus norvegicus [6]; 14.4 mmHg in the experiment with Rattus norvegicus [7]; 21.6 mmHg with Rattus norvegicus [8]. Besides, the Activity in the experiment filed under Felis catus is 0.11%; in the experiment with Rattus norvegicus [9] it was 8 mmHg. For the same compound, in experiment [2], the Kb was 0.0363 µM. The Ratio with Rattus norvegicus [5] amounted to 12.09; in the experiment on Rattus norvegicus [11], 2.14. The pA2 in [10] amounted to 9.16.
For `CC[C@H](C)[C@H](NC(=O)[C@H](Cc1ccc(O)cc1)NC(=O)[C@@H](NC(=O)[C@H](CCCNC(=N)N)NC(=O)CNC)C(C)C)C(=O)N[C@@H](Cc1cnc[nH]1)C(=O)N1CCC[C@H]1C(=O)N(C)[C@H](C(=O)O)[C@@H](C)CC`, the Ratio in the experiment with Rattus norvegicus [19] came to 2.56; with Rattus norvegicus [18] it was 2.99; in the experiment on Rattus norvegicus [14] it was 2.53; in the experiment with Rattus norvegicus [11], 2.99. Besides, in experiment [2], the Kb is 0.0141 µM. Moreover, the Activity stood at 21 mmHg with Rattus norvegicus [20]; 36 mmHg with Rattus norvegicus [3]; 30.33 mmHg in the experiment on Rattus norvegicus [13]; 1.06% in the experiment listed under Rattus norvegicus [12]; 17.71 mmHg with Rattus norvegicus [21]; 25.1 mmHg in the experiment on Rattus norvegicus [15]. Also, the Activity came to 32 mmHg in the experiment on Rattus norvegicus [6]; 24.66 mmHg with Rattus norvegicus [16]; 32 mmHg with Rattus norvegicus [17]; 0.1% in the experiment filed under Felis catus; 25.1 mmHg in the experiment with Rattus norvegicus [9]. In addition, in experiment [10], the pA2 is on record as 8.
Regarding `CC[C@H](C)[C@H](NC(=O)[C@H](Cc1ccc(O)cc1)NC(=O)[C@@H](NC(=O)[C@H](CCCNC(=N)N)NC(=O)CNC)C(C)C)C(=O)N[C@@H](Cc1cnc[nH]1)C(=O)N1CCC[C@H]1C(=O)N[C@@H](CO)C(=O)O` (H-[Sar]RVYIHPS-OH), the Kb in [2] was 0.00832 µM. Moreover, the Activity turned out to be 9.57 mmHg in the experiment with Rattus norvegicus [3]; 0.66% in the experiment filed under Rattus norvegicus [12]; 11.42 mmHg in the experiment on Rattus norvegicus [6]; 0.05% in the experiment filed under Felis catus; 9.57 mmHg in the experiment on Rattus norvegicus [9]. The pA2 in experiment [10] is 9.33. Also, in the experiment on Rattus norvegicus [11], the Ratio is listed as 11.15.
Regarding `CC[C@H](C)[C@H](NC(=O)[C@@H]1CCCN1C(=O)[C@H](Cc1c[nH]cn1)NC(=O)[C@H]([C@@H](C)CC)N(C)C(=O)[C@H](Cc1ccc(O)cc1)NC(=O)[C@@H](NC(=O)[C@H](CCCN=C(N)N)NC(=O)CNC)C(C)C)C(=O)O`, the Kb in [2] was 0.0229 µM. In addition, the Activity came out at 23 mmHg with Rattus norvegicus [3]; 0.46% in the experiment filed under Rattus norvegicus [12]; 22.8 mmHg in the experiment on Rattus norvegicus [6]; 0.01% in the experiment filed under Felis catus; 15.66 mmHg in the experiment on Rattus norvegicus [9]. The same compound yielded a pA2 in [10] of 9.31. Also, the Ratio in the experiment with Rattus norvegicus [11] is on record as 3.26.
